Where two headings read alike, the source gives them in different places.

The target in one data set is T1, somatostatin receptor (Rattus norvegicus, UniProt P30680).
T1 construct: endogenous in cells; host or cells: AR42J pancreatic tumour cells (whole cells)
Nature of the data set: Competitive binding assay displacing [111In]-DTPA-Octreotide (OctreoScan) on AR42J tumour cells.

A short description of data set [1]: Dynamic PET imaging of AR42J tumor bearing mice. The settings on record: female, BALB/c nu/nu athymic, mouse, in vivo, iv, total radioactivity; AR42J tumor, 60 min, i.v.; read-out: Tumor radiotracer uptake at 60 min by imaging. The text has this:
(§1) Briefly, tail veins were cannulated under general anesthesia (isofluorane).

Data set [2] is described as follows: Direct counting of tissue radioactivity (γ-counter), AR42J tumor. Also on record: species or system mice. The conditions noted are these: female, BALB/c nu/nu athymic, mouse, in vivo, iv, total radioactivity; AR42J tumor, after 60 min PET scan; read-out: Tumor radiotracer uptake after 60 min by γ-counting.
Method: (§2) Six to eight-week old female BALB/c nu/nu athymic mice were obtained from Harlan United Kingdom Ltd (Bicester, UK). […] Tumors were established by subcutaneous. injection of 100 μl of PBS containing 1×10^6 cells. […] All samples were weighed and their radioactivity directly determined using a Cobra II Auto-gamma counter (formerly Packard Instruments Meriden CT USA) applying a decay correction. The results were expressed as a percentage of the injected dose per gram (% ID/g).
For a further data set, the system named is AR42J tumor. The conditions noted are these: same tumor model; cited from earlier work.
The subject of data set [3] is AR42J tumor xenografts. Nature of the data set: Dynamic PET imaging of AR42J tumor bearing mice. The conditions noted are these: mouse, in vivo; for Tumor radiotracer uptake at 60 min by imaging: iv.
From the text: as §1

For data set [4], the system named is AR42J tumor xenografts. Nature of the data set: Direct counting of tissue radioactivity (γ-counter), AR42J tumor. The settings on record: mouse, in vivo. Set-up: species or system mice.
Method: as §2
How the values of data set [5] were obtained:
The octanol/PBS partition coefficients were determined using the shake flask method. Both solvents were presaturated with each other by shaking together for 5 min. To a solution of 500 μL of both octanol and PBS was added 20 μL of radiolabelled ligand in EtOH (n=3). The solutions mixtures were shaken in a rotamixer for 5 minutes. After equilibration the mixtures were centrifuged (10 min at 13,000 rpm) to achieve good separation. Samples from each layer (25 μL) were taken and measured in a γ counter and Log D was calculated according to the formula: log D=log(cpm in octanol layer/cpm in aqueous layer). Log D values were measured using the ^18F-labelled triazole. […] The receptor affinities for [^18F]1b-6b were determined using a competitive binding assay in AR42J tumours cells with [^111In]-OctreoScan as the labeled radiotracer.

A further data set concerns the target sstr-2 (Homo sapiens, UniProt P30874). Nature of the data set: Calcium flux FLIPR assay, agonist mode, sstr-2 expressing Chem-1 cells. A general note: Calcium flux is commonly read through the fluorescence of an indicator in the cells.
For data set [6] the following is noted: cited from earlier work.
[7] abbreviates: read-out: Alkyne analogue (a) IC50.
The mark [8] stands for this setting: [19F]-triazole, read-out: Triazole analogue (b) IC50.

T1 sequence (P30680 whole entry): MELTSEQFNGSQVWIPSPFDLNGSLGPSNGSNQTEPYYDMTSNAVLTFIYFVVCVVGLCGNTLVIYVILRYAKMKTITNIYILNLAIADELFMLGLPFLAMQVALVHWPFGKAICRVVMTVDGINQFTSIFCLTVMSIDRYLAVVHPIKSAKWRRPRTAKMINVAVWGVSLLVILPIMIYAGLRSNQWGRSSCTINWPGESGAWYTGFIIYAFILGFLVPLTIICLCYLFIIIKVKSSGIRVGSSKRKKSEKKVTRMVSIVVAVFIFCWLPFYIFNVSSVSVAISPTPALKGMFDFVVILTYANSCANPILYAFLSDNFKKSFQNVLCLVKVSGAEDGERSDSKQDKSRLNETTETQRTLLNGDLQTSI
Sequence of sstr-2 (P30874 whole entry): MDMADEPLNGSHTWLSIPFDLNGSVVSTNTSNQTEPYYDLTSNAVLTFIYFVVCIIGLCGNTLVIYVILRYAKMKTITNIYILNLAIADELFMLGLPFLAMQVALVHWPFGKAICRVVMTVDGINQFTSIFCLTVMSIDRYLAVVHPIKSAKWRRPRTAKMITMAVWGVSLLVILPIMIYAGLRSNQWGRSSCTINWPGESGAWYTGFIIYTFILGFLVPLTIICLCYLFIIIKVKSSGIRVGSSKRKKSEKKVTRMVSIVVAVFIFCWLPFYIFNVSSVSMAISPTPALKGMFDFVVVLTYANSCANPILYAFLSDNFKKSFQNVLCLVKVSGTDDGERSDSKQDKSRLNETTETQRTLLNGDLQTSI

With `C#CCCC(=O)NCCOCCOCCOCCOCCOCCOCCC(=O)N[C@H](Cc1ccccc1)C(=O)N[C@H]1CSSC[C@@H](C(=O)N[C@H](C(=O)O)[C@@H](C)O)NC(=O)[C@H]([C@@H](C)O)NC(=O)[C@H](CCCCN)NC(=O)[C@@H](Cc2c[nH]c3ccccc23)NC(=O)[C@H](Cc2ccc(O)cc2)NC1=O` [2a, E-PEG-TOCA], the half-maximal inhibitory concentration (IC50) at somatostatin receptor (setting [7]) worked out at 5.1 ± 2.1 nM.
Same read-out and setting: then `C#CC(=O)NCC(=O)N[C@H](Cc1ccccc1)C(=O)N[C@H]1CSSC[C@@H](C(=O)N[C@H](C(=O)O)[C@@H](C)O)NC(=O)[C@H]([C@@H](C)O)NC(=O)[C@H](CCCCN)NC(=O)[C@@H](Cc2c[nH]c3ccccc23)NC(=O)[C@H](Cc2ccc(O)cc2)NC1=O` [3a, G-TOCA], with 1.4 ± 0.1 nM; and `C#CCCC(=O)N[C@H](Cc1ccccc1)C(=O)N[C@H]1CSSC[C@@H](C(=O)N[C@H](C(=O)O)[C@@H](C)O)NC(=O)[C@H]([C@@H](C)O)NC(=O)[C@H](CCCCN)NC(=O)[C@@H](Cc2c[nH]c3ccccc23)NC(=O)[C@H](Cc2ccc(O)cc2)NC1=O` [4a, E-TOCA], with 1.8 ± 0.8 nM.
On the same count and under the same terms, then `C#CC(=O)NCCC(=O)NCC(=O)N[C@H](Cc1ccccc1)C(=O)N[C@H]1CSSC[C@@H](C(=O)N[C@H](C(=O)O)[C@@H](C)O)NC(=O)[C@H]([C@@H](C)O)NC(=O)[C@H](CCCCN)NC(=O)[C@@H](Cc2c[nH]c3ccccc23)NC(=O)[C@H](Cc2ccc(O)cc2)NC1=O` [5a, propynoyl-β-Ala-Gly-[Tyr^3]-Octreotate], with 1 ± 0.3 nM.
As to `C[C@@H](O)[C@H](NC(=O)[C@@H]1CSSC[C@H](NC(=O)[C@@H](Cc2ccccc2)NC(=O)CN2CCN(CC(=O)O)CCN(CC(=O)O)CCN(CC(=O)O)CC2)C(=O)N[C@@H](Cc2ccc(O)cc2)C(=O)N[C@H](Cc2c[nH]c3ccccc23)C(=O)N[C@@H](CCCCN)C(=O)N[C@@H]([C@@H](C)O)C(=O)N1)C(=O)O` [[^68Ga]DOTA-TATE, [^68Ga]-DOTATATE, metal not drawn, reference compound], the tissue uptake per volume at 1 h in data set [1] stood at 2.75 ± 0.11 %ID/mL. Further, in data set [2], the tissue uptake at 1 h was 3.78 ± 0.32 %ID/g.
Turning to `C[C@@H](O)[C@@H]1NC(=O)[C@H](CCCCN)NC(=O)[C@@H](Cc2c[nH]c3ccccc23)NC(=O)[C@H](Cc2ccccc2)NC(=O)[C@@H](NC(=O)[C@@H](Cc2ccccc2)NC(=O)CN(CCN(CCN(CC(=O)[O-])CC(=O)O)CC(=O)[O-])CC(=O)[O-])CSSC[C@@H](C(=O)N[C@H](CO)[C@@H](C)O)NC1=O.[111In+3]` [[^111In]-DTPA-octreotide], in the data set with AR42J tumor, the “Tumor uptake reported by Froidevaux et al.” value is 3.03±0.26 % ID/g.
In the case of FET-G-PEG-TOCA [1b], the “Tumor radiotracer uptake at 60 min by imaging” value in the data set with AR42J tumor xenografts [3] (1 h) amounted to 5.36 ± 0.45 % ID/ml. Besides, the “Tumor radiotracer uptake after 60 min by γ-counting” value in the data set with AR42J tumor xenografts [4] (iv, 1 h) is reported as 8.29 ± 1.42 % ID/g. In data set [5], the “Log D” value is on record as −2.68 and the “Log D of 18F-triazole” value is reported as −2.68.
On to FET-G-TOGA [3b], for which the IC50 on somatostatin receptor (setting [8]) is 4 ± 1.4 nM. In the data set on AR42J tumor xenografts [3], the “Kidney uptake in words” value is “highest”, the “Liver uptake in words” value is “highest liver uptake”, the “Tumor uptake/localization in words” value was “highest tumor uptake” and the “Tumor radiotracer uptake at 60 min by imaging” value is reported as 11.0 ± 1.49 % ID/ml. Further, the “Tumor radiotracer uptake after 60 min by γ-counting” value in the data set with AR42J tumor xenografts [4] is 17.04 ± 2.76 % ID/g. For the same compound, in data set [5], the “Log D” value is recorded as −1.82 and the “Log D of 18F-triazole” value is on record as −1.83.
Consider FET-βAG-[W-c-(CTFTYC)K] [6b], for which the “Kidney uptake in words” value in the data set with AR42J tumor xenografts [3] is on record as “low”. In addition, the “Tumor radiotracer uptake at 60 min by imaging” value in the data set on AR42J tumor xenografts [3] (1 h) is given as 0.10 ± 0.05 % ID/ml. For the same compound, at sstr-2, the “Activity/affinity on sstr-2 in words” value was “poor affinity”. Also, the “Tumor radiotracer uptake after 60 min by γ-counting” value with AR42J tumor xenografts [4] (iv, 1 h) is listed as 0.22 ± 0.12 % ID/g. Further, in data set [5], the “Log D” value is given as −1.14 and the “Log D of 18F-triazole” value is on record as −1.14.
As for FETE-PEG-TOGA [2b], the concentration for half-maximal inhibition (IC50) at somatostatin receptor (setting [8]) turned out to be 13.2 ± 7.8 nM. Further, the “Liver uptake in words” value in the data set on AR42J tumor xenografts [3] was “highest liver uptake”. Also, the “Tumor radiotracer uptake at 60 min by imaging” value in the data set on AR42J tumor xenografts [3] (1 h) came out at 5.14 ± 0.40 % ID/ml. Also, the “Tumor radiotracer uptake after 60 min by γ-counting” value in the data set with AR42J tumor xenografts [4] (iv, 1 h) was determined as 9.78 ± 2.57 % ID/g. In addition, in data set [5], the “Log D” value was −2.77 and the “Log D of 18F-triazole” value is reported as −2.77.
For FETE-TOGA [4b], the IC50 at somatostatin receptor (setting [8]) is 2.9 ± 1.3 nM. In the data set on AR42J tumor xenografts [3], the “Tumor radiotracer uptake at 60 min by imaging” value came to 6.11 ± 1.46 % ID/ml. In the data set on AR42J tumor xenografts [4], the “Tumor radiotracer uptake after 60 min by γ-counting” value is listed as 4.50 ± 1.51 % ID/g. Besides, in [5], the pH-dependent lipophilicity (Log D) was −1.50 and the “Log D of 18F-triazole” value is recorded as −1.5.
With [Tyr^3]octreotate, the Biological half life in [6] is recorded as 1.5-2 hours.

What is called IC50 is the concentration needed to halve the response being measured. In general, Log D refers to the decadic logarithm of the distribution of all forms, ionised or not, between an organic phase and buffer at a given pH. High values mean a more lipophilic compound, low ones a more hydrophilic compound.

These data come from patent US10201625B2, “Radiolabelled octreotate analogues as PET tracers” (IMPERIAL COLLEGE, priority 2011, dated 2019).
